Laboratory results from patent publication US20240287138A1, “CYCLIC PEPTIDES FOR INHIBITING TNF RECEPTOR 1 ACTIVITY” (Merck Sharp & Dohme LLC, priority 2023, published 2024).
Like-named read-outs stand apart in the source and are kept apart here. Numbered stars: 1 amine (or outer) side, 2 acyl side, 3 side chain; on linkers, the order of the positions; unused ones are H or OH. Bridge positions count the residues as written; N and C are the ends. Square brackets hold non-standard residues; d marks the D form. Peptide text beside a SMILES is read from it. * marks the point of attachment. Trp(βS-Me,7-OMe) = COc1cccc2c([C@H](C)[C@H](N)C(=O)O)c[nH]c12; dPro(trans-4-NMe3+) = C[N+](C)(C)[C@@H]1CN[C@@H](C(=O)O)C1; Trp(1-CH2COOH) = N[C@@H](Cc1cn(CC(=O)O)c2ccccc12)C(=O)O; X44 = NC(=O)c1ccc([C@@H](O)[C@H](N[*:1])C(=O)[*:2])cc1; Phe(4-SO2NH2) = N[C@@H](Cc1ccc(S(N)(=O)=O)cc1)C(=O)O; Ala(indazol-1-yl) = N[C@@H](Cn1ncc2ccccc21)C(=O)O; Trp(7-CN) = N#Cc1cccc2c(C[C@H](N)C(=O)O)c[nH]c12; Trp(7-Cl) = N[C@@H](Cc1c[nH]c2c(Cl)cccc12)C(=O)O; Ala(pyrimidin-5-yl) = N[C@@H](Cc1cncnc1)C(=O)O; Phe(4-CONH2) = NC(=O)c1ccc(C[C@H](N)C(=O)O)cc1; Phe(4-COOH) = N[C@@H](Cc1ccc(C(=O)O)cc1)C(=O)O; 4Pal(3S-Me) = C[C@@H](c1ccncc1)[C@H](N)C(=O)O; Trp(7-aza) = N[C@@H](Cc1c[nH]c2ncccc12)C(=O)O; Phe(4-CH2NH2) = NCc1ccc(C[C@H](N)C(=O)O)cc1; Pip(5R-OH) = O=C(O)[C@@H]1CC[C@@H](O)CN1; X1 = O=C([C@@H]1CC[C@H](N[*:1])C1)[*:2]; Pip(4-aza) = O=C(O)[C@@H]1CNCCN1; 4Pal = N[C@@H](Cc1ccncc1)C(=O)O; NMeE = CN[C@@H](CCC(=O)O)C(=O)O; dHyp = O=C(O)[C@H]1C[C@H](O)CN1; αMeS = C[C@](N)(CO)C(=O)O; Carboxymethyl = O=C(O)C*; Nle = CCCC[C@H](N)C(=O)O; CF3 = FC(F)(F)*; Sar = CNCC(=O)O

Assays:
[1] = molecular target: T1, human soluble TNFR1 (sTNFR1) (Homo sapiens, UniProt P19438); assay: Human sTNFR1-peptide displacement assay (LanthaScreen Eu TR-FRET binding assay)
T1 construct: made in house; host or cells: Sf21 (baculovirus)
T1 sequence (P19438 with tags, fused parts or gaps): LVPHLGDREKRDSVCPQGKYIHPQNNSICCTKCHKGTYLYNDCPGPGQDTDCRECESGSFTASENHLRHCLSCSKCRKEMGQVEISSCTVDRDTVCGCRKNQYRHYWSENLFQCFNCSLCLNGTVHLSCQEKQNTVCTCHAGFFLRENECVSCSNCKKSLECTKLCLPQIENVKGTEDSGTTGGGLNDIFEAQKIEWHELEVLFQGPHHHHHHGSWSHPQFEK
In short: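 Readout is the 665/615 nm TR-FRET ratio (Eu anti-His donor, streptavidin-Alexa647 acceptor), normalized to DMSO and saturating displacer, fit by Morrison-based five-parameter logistic for Kd^app. His-tagged sTNFR1 (1-211) prebound to 100 nM biotinylated peptide SEQ ID NO.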

[2] = molecular target: T2, TNFα-induced NF-κB signal transduction pathway (TNFR1 signaling) in THP-1 cells (Homo sapiens, UniProt P19438); assay: THP-1 Lucia NF-κB reporter cell assay, inhibition of TNFα-induced NF-κB signaling; type: cell-based; conditions: THP-1 NF-κB Lucia reporter cells, 10 ng/mL TNFα, 16-18 h, secreted luciferase, read-out: THP-1 IC50
T2 sequence (P19438 30-455): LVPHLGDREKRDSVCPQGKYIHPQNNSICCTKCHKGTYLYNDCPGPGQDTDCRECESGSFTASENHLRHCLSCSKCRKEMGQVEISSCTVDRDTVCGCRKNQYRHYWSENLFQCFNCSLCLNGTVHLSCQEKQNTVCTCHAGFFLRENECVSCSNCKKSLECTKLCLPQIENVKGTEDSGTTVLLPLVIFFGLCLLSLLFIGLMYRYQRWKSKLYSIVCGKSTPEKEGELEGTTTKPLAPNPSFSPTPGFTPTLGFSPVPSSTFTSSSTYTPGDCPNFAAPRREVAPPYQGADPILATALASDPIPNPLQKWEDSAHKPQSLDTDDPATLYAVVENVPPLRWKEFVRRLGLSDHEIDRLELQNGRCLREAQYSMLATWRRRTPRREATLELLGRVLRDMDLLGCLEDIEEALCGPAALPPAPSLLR
In short: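 THP-1 Lucia NF-κB cells, 20k/well, no selection antibiotics; peptide pre-inc 1 h 37 °C; + recombinant human TNFα 10 ng/mL final; o.n.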

[3] = displacement of biotinylated peptide SEQ ID NO. 1 from sTNFR1, 20 point titration, 5-parameter fit based on Morrison equation (tight binding), read-out: TR-FRET Kd^app

SMILES	Kd [1, 3] [nM]	IC50 ([2]; listed as 77) [nM]	IC50 [2] [nM]	IC50 [1] [nM]	Kd [1] [nM]
CCCC[C@@H]1NC(=O)[C@@H]2CC[C@@H](C2)NC(=O)[C@H]([C@@H](C)c2c[nH]c3c(OC)cccc23)NC(=O)CN(C)C(=O)[C@H](Cc2ccc(C(=O)O)cc2)NC(=O)[C@H](Cc2ccc(C(N)=O)cc2)NC(=O)[C@](C)(CO)NC(=O)[C@H](Cc2c[nH]c3c(C#N)cccc23)NC(=O)[C@H](Cc2ccc(C(=O)O)cc2)NC(=O)[C@H](CC(N)=O)NC(=O)[C@H]2C[C@H](OCC(=O)O)CN2C(=O)[C@H](Cc2c[nH]c3ncccc23)NC(=O)[C@@H]2CC[C@@H](O)CN2C(=O)[C@H](Cc2ccncc2)NC1=O [SEQ ID NO. 77] (cyclo([4Pal][Pip(5R-OH)][Trp(7-aza)][dHyp](Carboxymethyl)N[Phe(4-COOH)][Trp(7-CN)][αMeS][Phe(4-CONH2)][Phe(4-COOH)][Sar][Trp(βS-Me,7-OMe)][X1][Nle]))	0.06	0.6	–	–	–
CCCC[C@@H]1NC(=O)[C@@H]2CC[C@@H](C2)NC(=O)[C@H]([C@@H](C)c2c[nH]c3c(OC)cccc23)NC(=O)CN(C)C(=O)[C@H]([C@H](O)c2ccc(C(N)=O)cc2)NC(=O)[C@H](Cc2ccc(S(N)(=O)=O)cc2)NC(=O)[C@](C)(CO)NC(=O)[C@H](Cc2c[nH]c3c(C#N)cccc23)NC(=O)[C@H](Cc2ccc(C(=O)O)cc2)NC(=O)[C@H](CC(N)=O)NC(=O)[C@H]2C[C@H](O)CN2C(=O)[C@H](Cc2cn(CC(=O)O)c3ccccc23)NC(=O)[C@@H]2CC[C@@H](O)CN2C(=O)[C@H](Cc2ccncc2)NC1=O [SEQ ID NO. 210] (cyclo([4Pal][Pip(5R-OH)][Trp(1-CH2COOH)][dHyp]N[Phe(4-COOH)][Trp(7-CN)][αMeS][Phe(4-SO2NH2)][X44][Sar][Trp(βS-Me,7-OMe)][X1][Nle]))	0.12	–	0.5	–	–
CCCC[C@@H]1NC(=O)CSC[C@@H](C(N)=O)NC(=O)[C@H]([C@@H](C)c2c[nH]c3c(OC)cccc23)NC(=O)CN(C)C(=O)[C@H](Cc2ccc(OC(F)(F)F)cc2)NC(=O)[C@H](Cc2ccc(C(=O)O)cc2)NC(=O)[C@](C)(CO)NC(=O)[C@H](Cc2c[nH]c3c(Cl)cccc23)NC(=O)[C@H](Cc2ccncc2)NC(=O)[C@H](CC(N)=O)NC(=O)[C@H](CCC(=O)O)N(C)C(=O)[C@H](Cc2c[nH]c3ncccc23)NC(=O)[C@@H]2CNCCN2C(=O)[C@H](Cc2ccncc2)NC1=O [SEQ ID NO. 158] ({CH2CO}-[Nle][4Pal][Pip(4-aza)][Trp(7-aza)][NMeE]N[4Pal][Trp(7-Cl)][αMeS][Phe(4-COOH)]Y(CF3)[Sar][Trp(βS-Me,7-OMe)]C-NH2; thioether N-14)	–	–	5.3	1.79	–
CCCC[C@@H]1NC(=O)[C@@H]2CC[C@@H](C2)NC(=O)[C@H]([C@@H](C)c2c[nH]c3c(OC)cccc23)NC(=O)CN(C)C(=O)[C@H](Cc2ccc(OCC(=O)O)cc2)NC(=O)[C@H](Cc2ccc(S(N)(=O)=O)cc2)NC(=O)[C@](C)(CO)NC(=O)[C@H](Cc2c[nH]c3c(C#N)cccc23)NC(=O)[C@H](Cc2ccc(OCC(=O)O)cc2)NC(=O)[C@H](CC(N)=O)NC(=O)[C@H]2C[C@H]([N+](C)(C)C)CN2C(=O)[C@H](Cn2ncc3ccccc32)NC(=O)[C@@H]2CC[C@@H](O)CN2C(=O)[C@H](Cc2cncnc2)NC1=O [SEQ ID NO. 43] (cyclo(NY(Carboxymethyl)[Trp(7-CN)][αMeS][Phe(4-SO2NH2)]Y(Carboxymethyl)[Sar][Trp(βS-Me,7-OMe)][X1][Nle][Ala(pyrimidin-5-yl)][Pip(5R-OH)][Ala(indazol-1-yl)][dPro(trans-4-NMe3+)]))	–	–	0.6	–	0.09
CCCC[C@@H]1NC(=O)CSC[C@@H](C(N)=O)NC(=O)[C@H]([C@@H](C)c2c[nH]c3c(OC)cccc23)NC(=O)CN(C)C(=O)[C@H](Cc2ccc(O)cc2)NC(=O)[C@H](Cc2ccc(C(=O)O)cc2)NC(=O)[C@](C)(CO)NC(=O)[C@H](Cc2c[nH]c3c(Cl)cccc23)NC(=O)[C@H]([C@@H](C)c2ccncc2)NC(=O)[C@H](CC(N)=O)NC(=O)[C@H](CCC(=O)O)N(C)C(=O)[C@H](Cc2c[nH]c3ccccc23)NC(=O)[C@H](CO)NC(=O)[C@H](Cc2ccc(CN)cc2)NC1=O [SEQ ID NO. 252] ({CH2CO}-[Nle][Phe(4-CH2NH2)]SW[NMeE]N[4Pal(3S-Me)][Trp(7-Cl)][αMeS][Phe(4-COOH)]Y[Sar][Trp(βS-Me,7-OMe)]C-NH2; thioether N-14)	–	–	23.3	2.39	–
